Experimental findings from ChEMBL document CHEMBL5291721, “A preclinical secondary pharmacology resource illuminates target-adverse drug reaction associations of marketed drugs” (Nat Commun, 2023) are described below.

Each structure is given as a SMILES string.

Assay [1] deals with T1, 5-hydroxytryptamine receptor 1A (Homo sapiens, UniProt P08908).
T1 sequence (P08908 whole entry): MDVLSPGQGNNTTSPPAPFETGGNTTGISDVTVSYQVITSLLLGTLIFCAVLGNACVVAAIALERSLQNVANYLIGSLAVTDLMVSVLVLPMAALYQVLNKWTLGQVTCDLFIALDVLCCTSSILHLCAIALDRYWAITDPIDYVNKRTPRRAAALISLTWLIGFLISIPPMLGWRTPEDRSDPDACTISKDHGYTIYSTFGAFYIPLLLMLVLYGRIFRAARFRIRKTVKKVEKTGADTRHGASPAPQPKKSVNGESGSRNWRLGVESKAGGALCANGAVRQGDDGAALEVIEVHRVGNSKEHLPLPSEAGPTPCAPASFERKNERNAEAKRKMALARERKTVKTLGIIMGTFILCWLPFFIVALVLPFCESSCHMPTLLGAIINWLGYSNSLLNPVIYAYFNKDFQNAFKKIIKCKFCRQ
Format: functional, cell-based.

For assay [2], the target named is 3',5'-cyclic-AMP phosphodiesterase 4D (Homo sapiens, UniProt Q08499). Format: functional.
Sequence of 3',5'-cyclic-AMP phosphodiesterase 4D (Q08499 whole entry): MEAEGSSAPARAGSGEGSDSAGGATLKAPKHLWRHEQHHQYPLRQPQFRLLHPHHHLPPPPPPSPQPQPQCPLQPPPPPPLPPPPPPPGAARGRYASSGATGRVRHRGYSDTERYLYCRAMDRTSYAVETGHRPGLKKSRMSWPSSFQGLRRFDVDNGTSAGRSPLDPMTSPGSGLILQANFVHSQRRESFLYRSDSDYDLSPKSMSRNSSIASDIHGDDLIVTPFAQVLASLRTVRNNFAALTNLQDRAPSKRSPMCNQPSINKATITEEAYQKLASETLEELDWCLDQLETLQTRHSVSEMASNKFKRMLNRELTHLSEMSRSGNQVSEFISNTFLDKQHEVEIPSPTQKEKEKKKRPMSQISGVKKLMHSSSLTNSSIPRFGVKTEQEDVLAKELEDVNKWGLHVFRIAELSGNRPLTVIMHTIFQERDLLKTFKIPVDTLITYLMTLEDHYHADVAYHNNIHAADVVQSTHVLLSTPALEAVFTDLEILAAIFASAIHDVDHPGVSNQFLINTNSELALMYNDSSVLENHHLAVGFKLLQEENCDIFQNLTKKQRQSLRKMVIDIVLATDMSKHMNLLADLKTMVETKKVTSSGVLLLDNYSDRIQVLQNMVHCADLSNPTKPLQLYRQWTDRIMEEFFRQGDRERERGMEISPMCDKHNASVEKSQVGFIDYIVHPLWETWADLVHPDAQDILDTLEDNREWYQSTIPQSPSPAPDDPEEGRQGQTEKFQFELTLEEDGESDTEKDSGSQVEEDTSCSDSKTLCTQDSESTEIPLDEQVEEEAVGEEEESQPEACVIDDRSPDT
Assay [3] has as its target T2, Prostaglandin G/H synthase 1 (Rattus norvegicus, UniProt Q63921).
T2 sequence (Q63921 whole entry): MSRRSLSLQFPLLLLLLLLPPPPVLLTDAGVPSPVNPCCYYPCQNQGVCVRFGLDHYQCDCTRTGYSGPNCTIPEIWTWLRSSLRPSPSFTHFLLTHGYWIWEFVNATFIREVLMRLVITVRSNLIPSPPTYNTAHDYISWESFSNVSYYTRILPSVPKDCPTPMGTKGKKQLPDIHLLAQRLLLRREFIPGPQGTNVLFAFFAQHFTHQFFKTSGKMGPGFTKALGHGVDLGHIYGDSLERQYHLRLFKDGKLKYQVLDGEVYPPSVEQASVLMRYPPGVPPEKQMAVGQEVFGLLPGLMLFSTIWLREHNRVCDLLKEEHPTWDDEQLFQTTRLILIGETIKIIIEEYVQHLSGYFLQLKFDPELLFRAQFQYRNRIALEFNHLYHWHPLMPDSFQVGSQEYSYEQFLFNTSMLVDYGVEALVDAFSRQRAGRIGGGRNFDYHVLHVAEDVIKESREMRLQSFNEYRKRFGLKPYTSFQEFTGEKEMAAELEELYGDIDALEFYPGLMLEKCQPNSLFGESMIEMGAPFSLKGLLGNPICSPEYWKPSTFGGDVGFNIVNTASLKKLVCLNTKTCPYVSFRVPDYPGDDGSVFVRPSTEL
Format: functional.

A further assay deals with Vasopressin V1a receptor (Homo sapiens, UniProt P37288).
Sequence of Vasopressin V1a receptor (P37288 whole entry): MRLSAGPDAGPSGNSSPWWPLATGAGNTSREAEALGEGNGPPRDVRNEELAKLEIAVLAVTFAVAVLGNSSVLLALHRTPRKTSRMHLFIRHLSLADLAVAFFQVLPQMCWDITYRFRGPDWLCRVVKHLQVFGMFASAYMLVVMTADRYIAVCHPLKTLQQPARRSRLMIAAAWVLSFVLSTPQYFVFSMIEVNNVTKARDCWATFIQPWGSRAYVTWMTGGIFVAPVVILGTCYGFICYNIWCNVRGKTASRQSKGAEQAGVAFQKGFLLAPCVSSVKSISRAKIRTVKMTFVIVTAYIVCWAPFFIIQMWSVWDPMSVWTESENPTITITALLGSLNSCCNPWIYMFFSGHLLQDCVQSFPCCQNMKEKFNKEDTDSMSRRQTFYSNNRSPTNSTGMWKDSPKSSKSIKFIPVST
For assay [4], the target named is T3, Alpha-1A adrenergic receptor (Homo sapiens, UniProt P35348).
T3 sequence (P35348 whole entry): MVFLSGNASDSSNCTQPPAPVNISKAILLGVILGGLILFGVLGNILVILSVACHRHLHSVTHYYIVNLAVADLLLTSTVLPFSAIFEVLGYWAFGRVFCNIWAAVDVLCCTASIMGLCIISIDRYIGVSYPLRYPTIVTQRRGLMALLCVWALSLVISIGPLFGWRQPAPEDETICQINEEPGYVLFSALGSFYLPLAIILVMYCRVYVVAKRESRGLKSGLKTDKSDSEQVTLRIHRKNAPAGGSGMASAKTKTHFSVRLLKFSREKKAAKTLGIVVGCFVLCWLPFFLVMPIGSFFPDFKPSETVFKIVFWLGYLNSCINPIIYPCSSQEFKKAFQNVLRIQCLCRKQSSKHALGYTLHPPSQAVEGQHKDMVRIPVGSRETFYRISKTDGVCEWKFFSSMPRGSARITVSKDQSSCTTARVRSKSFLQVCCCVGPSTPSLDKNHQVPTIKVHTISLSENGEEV
Format: functional, cell-based.

The target of assay [5] is Kappa-type opioid receptor (Homo sapiens, UniProt P41145).
Sequence of Kappa-type opioid receptor (P41145 whole entry): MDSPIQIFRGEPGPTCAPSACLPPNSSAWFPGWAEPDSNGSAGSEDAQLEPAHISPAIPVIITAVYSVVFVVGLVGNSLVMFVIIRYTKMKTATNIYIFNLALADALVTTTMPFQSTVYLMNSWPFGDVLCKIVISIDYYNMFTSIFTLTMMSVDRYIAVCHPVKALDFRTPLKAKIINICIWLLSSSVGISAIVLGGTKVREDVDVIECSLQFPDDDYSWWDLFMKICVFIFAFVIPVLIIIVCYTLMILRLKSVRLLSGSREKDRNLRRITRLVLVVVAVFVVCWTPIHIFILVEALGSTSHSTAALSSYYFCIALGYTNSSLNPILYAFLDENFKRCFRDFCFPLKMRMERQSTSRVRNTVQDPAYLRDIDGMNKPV
Assay [6] addresses T4, 5-hydroxytryptamine receptor 3A (Homo sapiens, UniProt P46098).
T4 sequence (P46098 whole entry): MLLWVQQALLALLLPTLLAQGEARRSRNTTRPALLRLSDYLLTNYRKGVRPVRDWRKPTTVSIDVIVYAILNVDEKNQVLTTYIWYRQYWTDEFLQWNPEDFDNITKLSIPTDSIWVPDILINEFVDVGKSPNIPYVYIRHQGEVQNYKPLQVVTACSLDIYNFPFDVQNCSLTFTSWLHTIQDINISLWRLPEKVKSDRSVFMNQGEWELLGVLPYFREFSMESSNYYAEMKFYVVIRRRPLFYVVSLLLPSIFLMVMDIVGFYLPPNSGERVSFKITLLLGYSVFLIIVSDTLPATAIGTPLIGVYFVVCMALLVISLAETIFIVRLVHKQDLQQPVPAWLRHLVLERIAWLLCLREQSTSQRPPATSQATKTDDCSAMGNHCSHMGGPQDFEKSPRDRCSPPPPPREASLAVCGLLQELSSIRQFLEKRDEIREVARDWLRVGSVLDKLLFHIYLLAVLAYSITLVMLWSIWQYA
Format: functional.

The next assay deals with Motilin receptor (Homo sapiens, UniProt O43193).
Sequence of Motilin receptor (O43193 whole entry): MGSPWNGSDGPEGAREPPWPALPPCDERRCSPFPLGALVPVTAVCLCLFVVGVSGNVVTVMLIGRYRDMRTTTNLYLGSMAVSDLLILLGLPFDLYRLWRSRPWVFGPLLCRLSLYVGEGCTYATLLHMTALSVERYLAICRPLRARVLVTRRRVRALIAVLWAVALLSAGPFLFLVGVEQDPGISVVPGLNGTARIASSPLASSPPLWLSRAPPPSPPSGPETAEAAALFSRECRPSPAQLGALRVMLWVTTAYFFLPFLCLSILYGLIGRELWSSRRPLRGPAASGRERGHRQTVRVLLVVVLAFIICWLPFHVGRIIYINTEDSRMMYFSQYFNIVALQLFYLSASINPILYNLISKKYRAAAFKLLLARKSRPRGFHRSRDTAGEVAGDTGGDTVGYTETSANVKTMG
The target in assay [7] is T5, Alpha-2B adrenergic receptor (Homo sapiens, UniProt P18089).
T5 sequence (P18089 whole entry): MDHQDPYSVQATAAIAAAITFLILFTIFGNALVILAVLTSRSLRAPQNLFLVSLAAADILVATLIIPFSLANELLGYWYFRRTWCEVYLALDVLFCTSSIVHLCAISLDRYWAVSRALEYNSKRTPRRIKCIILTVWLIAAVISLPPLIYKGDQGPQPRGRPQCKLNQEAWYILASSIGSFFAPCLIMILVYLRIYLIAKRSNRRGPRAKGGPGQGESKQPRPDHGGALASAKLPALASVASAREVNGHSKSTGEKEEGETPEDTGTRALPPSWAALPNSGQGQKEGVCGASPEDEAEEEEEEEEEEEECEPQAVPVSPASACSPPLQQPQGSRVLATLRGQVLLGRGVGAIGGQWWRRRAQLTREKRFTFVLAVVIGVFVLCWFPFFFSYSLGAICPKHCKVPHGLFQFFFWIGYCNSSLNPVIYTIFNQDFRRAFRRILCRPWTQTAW

The target in assay [8] is 5-hydroxytryptamine receptor 2A (Homo sapiens, UniProt P28223). Format: functional, cell-based.
Sequence of 5-hydroxytryptamine receptor 2A (P28223 whole entry): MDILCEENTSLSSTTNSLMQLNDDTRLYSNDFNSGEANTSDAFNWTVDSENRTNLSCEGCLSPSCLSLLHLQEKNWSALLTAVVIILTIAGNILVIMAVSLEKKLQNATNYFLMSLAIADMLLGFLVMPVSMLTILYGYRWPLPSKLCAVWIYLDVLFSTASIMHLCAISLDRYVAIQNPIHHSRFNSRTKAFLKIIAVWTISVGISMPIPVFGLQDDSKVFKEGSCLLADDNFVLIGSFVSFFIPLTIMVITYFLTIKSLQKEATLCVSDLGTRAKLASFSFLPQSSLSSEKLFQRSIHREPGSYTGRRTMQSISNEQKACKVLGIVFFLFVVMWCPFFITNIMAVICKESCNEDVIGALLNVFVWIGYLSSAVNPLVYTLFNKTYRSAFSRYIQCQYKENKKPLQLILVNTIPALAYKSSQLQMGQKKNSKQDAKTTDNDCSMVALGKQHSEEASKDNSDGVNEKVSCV
Further: assay procedure not described here.

In the case of `N=C(N)NC(=O)c1nc(Cl)c(N)nc1N` [AMILORIDE], the concentration at half-maximal activity (AC50) (in [1]; in assay [2]; in [3]; on Vasopressin V1a receptor; in assay [4]; in [5]) was more than 30 µM each time. The concentration at half-maximal activity (AC50) (in assay [6]; on Motilin receptor) was more than 30 µM throughout.

For the compound `COc1ccc(-c2cc(=S)ss2)cc1` [ANETHOLTRITHION], the AC50 (as a rule, the concentration giving half of the maximal activity seen) was more than 30 µM in assay [1]; more than 10 µM in assay [2]; more than 30 µM in assay [3]; 8.7 µM on Vasopressin V1a receptor; more than 30 µM in assay [4]; more than 30 µM in assay [5]. Moreover, the AC50 is more than 10 µM in [6], more than 30 µM in [7], more than 30 µM in [8] and more than 10 µM at Motilin receptor.

Regarding `CC(C)(C)NCC(O)COc1ccccc1C#N` (configuration not stated) [BUNITROLOL], the AC50 in assay [1] was more than 30 µM; in [2] it was more than 30 µM; in assay [4] it was more than 30 µM; in [5], more than 30 µM; in assay [6], more than 30 µM; in [7], 26 µM. The AC50 in assay [8] is more than 30 µM.

On to `CN(C)CCC(O)(c1ccccc1)c1ccccc1Cl` (configuration not stated) [CHLOPHEDIANOL], for which the AC50 was more than 10 µM in assay [1]; more than 30 µM in [2]; more than 10 µM in assay [3]; more than 10 µM at Vasopressin V1a receptor; 7.1 µM in assay [5]; more than 30 µM in [6]. Further, the AC50 is more than 10 µM in [7], 4.4 µM in assay [8] and more than 10 µM at Motilin receptor.

On to `C[C@]12C=CC(=O)C=C1C(Cl)=C[C@@H]1[C@@H]2[C@@H](O)C[C@@]2(C)[C@H]1CC[C@]2(O)C(=O)CO` [CLOPREDNOL], for which the AC50 (in [1]; in assay [2]; in assay [3]; on Vasopressin V1a receptor; in assay [5]; in assay [6]) was more than 30 µM throughout. In addition, the half-maximal activity concentration (AC50) was more than 30 µM in assay [7], more than 30 µM in assay [8] and 16 µM on Motilin receptor.

For the compound `COc1cccc2c1C(=O)c1c(O)c3c(c(O)c1C2=O)C[C@@](O)(C(=O)CO)C[C@@H]3O[C@H]1C[C@H](N)[C@H](O)[C@H](C)O1` [DOXORUBICIN], the AC50 was more than 30 µM in assay [1]; more than 30 µM in [2]; more than 30 µM in [3]; more than 30 µM at Vasopressin V1a receptor; more than 10 µM in assay [5]; more than 30 µM in [6]. Further, the half-maximal activity concentration (AC50) on Motilin receptor is more than 30 µM.

Take `CC(C)(Oc1ccc(Cl)cc1)C(=O)OCCOC(=O)c1cccnc1` [ETOFIBRATE]: the AC50 (in assay [2]; in [3]; on Vasopressin V1a receptor; in assay [4]; in assay [5]; in assay [6]) was more than 30 µM in each case. In addition, the concentration at half-maximal activity (AC50) (in [7]; in assay [8]; at Motilin receptor) was more than 30 µM throughout.

`CCn1c(=O)c2c(nc(/C=C/c3ccc(OC)c(OC)c3)n2C)n(CC)c1=O` [ISTRADEFYLLINE]: the concentration at half-maximal activity (AC50) was 1.8 µM in assay [2], more than 30 µM in assay [3], more than 30 µM in assay [4] and more than 30 µM in assay [8].

Consider `COc1ccc(C(=O)c2ccccc2)c(O)c1` [OXYBENZONE], for which the concentration at half-maximal activity (AC50) in assay [1] was more than 30 µM; in [2], 26 µM; in assay [4], more than 30 µM; in assay [5], more than 30 µM; in assay [6], more than 30 µM; in assay [7], more than 30 µM. This compound also gave an AC50 in assay [8] of more than 30 µM.

With `CN1C(C(=O)Nc2ccccn2)=C(OC(=O)/C=C/c2ccccc2)c2ccccc2S1(=O)=O` [PIROXICAM CINNAMATE], the AC50 in assay [3] is more than 300 µM.

As to `C[C@]12C=CC(=O)C=C1CC[C@@H]1[C@@H]2[C@@H](O)C[C@@]2(C)[C@H]1CC[C@]2(O)C(=O)CO` [PREDNISOLONE], the AC50 was more than 10 µM in assay [1]; more than 30 µM in assay [2]; more than 30 µM in assay [3]; more than 30 µM at Vasopressin V1a receptor; more than 30 µM in [4]; more than 10 µM in assay [5]. Besides, the values for the AC50 (in assay [6]; at Motilin receptor) were more than 30 µM and more than 10 µM, respectively.

For the compound `CCC(=O)c1ccc2c(c1)N(CC(C)N(C)C)c1ccccc1S2` (configuration not stated) [PROPIOMAZINE], the AC50 in assay [1] was more than 30 µM; in assay [2] it was more than 10 µM; in assay [3] it was more than 10 µM; on Vasopressin V1a receptor, more than 10 µM; in assay [5], 1.7 µM; in [6], more than 30 µM. For the same compound, the AC50 in assay [7] was 0.32 µM; in assay [8] it was 1 µM; at Motilin receptor it was more than 10 µM.

For the compound `Cc1cn(-c2cc(NC(=O)c3ccc(C)c(Nc4nccc(-c5cnccn5)n4)c3)cc(C(F)(F)F)c2)cn1` [RADOTINIB], the AC50 in assay [2], in [3], in [4] and in [8] was more than 30 µM throughout.

Consider `Cc1ccc(O)c([C@H](CCN(C(C)C)C(C)C)c2ccccc2)c1` [TOLTERODINE], for which the AC50 is more than 10 µM in assay [1]; more than 30 µM in assay [4]; 6.71 µM in assay [5]; more than 10 µM in [6]; more than 10 µM in assay [7].

Consider `CC1(C)O[C@@H]2C[C@H]3[C@@H]4CCC5=CC(=O)C=C[C@]5(C)[C@@]4(F)[C@@H](O)C[C@]3(C)[C@]2(C(=O)CO)O1` [TRIAMCINOLONE ACETONIDE], for which the concentration at half-maximal activity (AC50) (in assay [1]; in [2]; in assay [3]; in assay [5]; in assay [6]; on Motilin receptor) was more than 30 µM each time.

As for `Oc1cc(Cl)ccc1Oc1ccc(Cl)cc1Cl` [TRICLOSAN], the concentration at half-maximal activity (AC50) (in assay [1]; in [2]; in assay [3]; on Vasopressin V1a receptor; in [4]; in assay [5]) was more than 30 µM in each case. For the same compound, the AC50 (in [7]; in assay [8]; on Motilin receptor) was more than 30 µM in each case.
